# From patent publication US11866430B2, “Naphthyridinone compounds useful as T cell activators” (priority 2018, dated 2024)
# Like-named read-outs stand apart in the source and are kept apart here.
# Key:
# [1] = tested on: Jurkat AP1-luciferase Reporter; assay: DGK AP1-Reporter Assay; format: cell-based
# Procedure: The Jurkat AP1-luciferase Reporter was generated using the Cignal Lenti AP1 Reporter (luc) Kit from SABiosciences (CLS-011L).
# The sample size was 30 nl per well; and one destination plate per source plate. The cell suspensions were prepared by transferring 40 mL cells (2×20 mL) to clean 50 mL conical tubes. The cells were concentrated by centrifugation (1200 rpm; 5 mins; ambient temperature). […] The cell plates were incubated for 20 minutes at 37° C., and 5% CO2.
# During the incubation, anti-CD3 antibody (αCD3) solutions were prepared by mixing 3 μl αCD3 (1.3 mg/mL) with 10 mL medium [final conc=0.4 μg/mL]. Next, 1.5 μl αCD3 (1.3 mg/mL) was mixed with 0.5 mL medium [final conc=4 μg/mL]. After 20 minutes, 10 μl medium was added to all wells in column 1, wells A to M, and 10 μl αCD3 (4 μg/mL) per well was added in column 1, rows N to P for reference. Then using a multi-channel pipette, 10 μl αCD3 (0.4 μg/mL) per well was added. The αCD3 stimulated +/− compound-treated cells were incubated at 37° C., 5% CO2 for 6 hours.
# During this incubation period. Steady-Glo (Promega E2520) reagent was slowly thawed on to ambient temperature. Next, 20 μl Steady-Glo reagent per well was added using a multi-drop Combi-dispenser. Bubbles were removed by centrifugation (2000 rpm, ambient temperature, 10 sees). The cells were incubated at room temperature for 5 minutes. Samples were characterized by measuring the Relative Light Units (RLU) with an using Envision Plate Reader Instrument on a luminescence protocol.
# human DGKα = human DGKα (Homo sapiens (Human), UniProt P23743); assay: biochemical
# human DGKα, sequence (P23743 other isoform, or with tags, fused parts or gaps): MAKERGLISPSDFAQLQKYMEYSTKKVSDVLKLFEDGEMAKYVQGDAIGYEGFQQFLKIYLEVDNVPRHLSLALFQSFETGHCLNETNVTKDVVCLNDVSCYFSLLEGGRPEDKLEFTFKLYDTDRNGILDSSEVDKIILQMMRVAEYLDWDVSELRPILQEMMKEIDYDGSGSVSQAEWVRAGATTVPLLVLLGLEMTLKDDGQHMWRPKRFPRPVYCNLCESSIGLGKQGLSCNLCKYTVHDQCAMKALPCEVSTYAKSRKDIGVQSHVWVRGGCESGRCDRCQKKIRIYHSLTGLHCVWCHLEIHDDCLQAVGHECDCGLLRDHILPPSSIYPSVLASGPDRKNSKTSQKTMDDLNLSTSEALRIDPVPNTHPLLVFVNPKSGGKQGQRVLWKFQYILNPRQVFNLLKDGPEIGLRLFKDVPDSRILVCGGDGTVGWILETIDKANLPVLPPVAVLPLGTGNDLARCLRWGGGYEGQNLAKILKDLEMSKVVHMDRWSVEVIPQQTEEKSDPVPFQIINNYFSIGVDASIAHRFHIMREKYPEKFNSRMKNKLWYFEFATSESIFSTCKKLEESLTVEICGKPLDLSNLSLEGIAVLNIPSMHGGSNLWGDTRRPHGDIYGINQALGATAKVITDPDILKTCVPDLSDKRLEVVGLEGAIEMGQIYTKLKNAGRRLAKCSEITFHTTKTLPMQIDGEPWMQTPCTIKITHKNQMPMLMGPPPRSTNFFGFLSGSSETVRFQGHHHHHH
# Outline: (§1)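 Enzymes were baculovirus/Sf9 full-length human DGKα or DGKζ with His tag. The substrate was PS/DAG in octyl glucoside micelles, in MOPS pH 7.5 buffer with NaCl, MgCl2, CaCl2 and DTT.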
# human DGKζ = human DGKζ (Homo sapiens (Human), UniProt Q13574); assay: DGKζ assay (detergent/lipid micelle substrate); format: biochemical; conditions: detergent/lipid micelle substrate; read-out: DGKζ IC50
# human DGKζ, sequence (Q13574 other isoform, or with tags, fused parts or gaps): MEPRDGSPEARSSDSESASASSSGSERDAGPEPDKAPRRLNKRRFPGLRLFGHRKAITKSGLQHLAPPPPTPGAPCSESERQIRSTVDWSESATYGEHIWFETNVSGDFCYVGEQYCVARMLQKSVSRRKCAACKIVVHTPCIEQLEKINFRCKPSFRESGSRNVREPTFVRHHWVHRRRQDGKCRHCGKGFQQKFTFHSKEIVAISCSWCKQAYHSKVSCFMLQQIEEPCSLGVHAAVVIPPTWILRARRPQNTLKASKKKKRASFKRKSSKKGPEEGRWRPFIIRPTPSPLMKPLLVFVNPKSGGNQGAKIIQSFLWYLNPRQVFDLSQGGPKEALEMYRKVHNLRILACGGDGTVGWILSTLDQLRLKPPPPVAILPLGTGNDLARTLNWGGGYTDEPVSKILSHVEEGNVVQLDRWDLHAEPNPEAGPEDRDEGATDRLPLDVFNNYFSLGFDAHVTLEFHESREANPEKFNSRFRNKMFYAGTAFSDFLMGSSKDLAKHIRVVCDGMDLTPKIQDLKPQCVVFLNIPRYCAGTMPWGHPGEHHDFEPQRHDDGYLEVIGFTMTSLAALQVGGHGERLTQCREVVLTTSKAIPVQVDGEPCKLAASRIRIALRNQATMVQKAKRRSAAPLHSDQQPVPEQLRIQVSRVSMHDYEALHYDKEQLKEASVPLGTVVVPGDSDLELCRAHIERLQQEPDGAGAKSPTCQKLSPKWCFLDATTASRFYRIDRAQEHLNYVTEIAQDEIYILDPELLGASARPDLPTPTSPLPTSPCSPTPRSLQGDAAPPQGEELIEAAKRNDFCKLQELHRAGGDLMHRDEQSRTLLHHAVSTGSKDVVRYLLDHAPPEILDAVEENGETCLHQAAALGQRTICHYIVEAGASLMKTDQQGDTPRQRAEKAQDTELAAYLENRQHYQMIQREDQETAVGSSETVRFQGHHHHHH
# Outline: as §1
# [2] = Homo sapiens, Jurkat, read-out: API-Luciferase Reporter IC50, Table 3
# [3] = detergent/lipid micelle substrate, read-out: DGKα IC50
Compound,"IC50 [1, 2] [nM]",IC50 (human DGKα; [3]) [nM],IC50 (human DGKζ) [µM],"IC50 (human DGKα; DGKα IC50, detergent/lipid micelle substrate) [nM]","IC50 ([1]; read-out: API-Luciferase Reporter IC50, Table 3) [nM]"
"COc1cc(F)ccc1C(c1ccc(F)cc1)N1CCN(c2c(C#N)c(=O)n(C)c3ccc(Br)nc23)CC1 (racemic) [Example 15, 6-bromo-4-{4-[(4-fluoro-2-methoxyphenyl)(4-fluorophenyl)methyl]piperazin-1-yl}-1-methyl-2-oxo-1,2-dihydro-1,5-naphthyridine-3-carbonitrile]",1820,550,58,,
"CC(c1ccc(F)cc1)N1CCN(c2c(C#N)c(=O)n(C)c3ccc(Br)nc23)CC1 (racemic) [Example 22, 6-bromo-4-{4-[1-(4-fluorophenyl)ethyl]piperazin-1-yl}-1-methyl-2-oxo-1,2-dihydro-1,5-naphthyridine-3-carbonitrile]",1530,70,> 81,,
"CCC(c1ccc(F)cc1)N1CCN(c2c(C#N)c(=O)n(C)c3ccc(Br)nc23)CC1 (racemic) [Example 25, 6-bromo-4-{4-[1-(4-fluorophenyl)propyl]piperazin-1-yl}-1-methyl-2-oxo-1,2-dihydro-1,5-naphthyridine-3-carbonitrile]",1150,41,> 81,,
"Cn1c(=O)c(C#N)c(N2CCN(CC(O)c3ccc(F)cc3)CC2)c2nc(Br)ccc21 (racemic) [Example 28, 6-bromo-4-{4-[2-(4-fluorophenyl)-2-hydroxyethyl]piperazin-1-yl}-1-methyl-2-oxo-1,2-dihydro-1,5-naphthyridine-3-carbonitrile]",4450,1300,> 81,,
"COCCn1c(=O)c(C#N)c(N2CCN(C(c3ccc(F)cc3)c3ccc(F)cc3OC)CC2)c2nc(Br)ccc21 (racemic) [Example 114, 6-bromo-4-(4-((4-fluoro-2-methoxyphenyl)(4-fluorophenyl)methyl)piperazin-1-yl)-1-(2-methoxyethyl)-2-oxo-1,2-dihydro-1,5-naphthyridine-3-carbonitrile]",4120,120000,100,,
"C#CCn1c(=O)c([N+](=O)[O-])c(N2CCN(C(c3ccc(F)cc3)c3ccccc3O)CC2)c2nc(C#N)ccc21 (racemic) [Example 132, 8-(4-((4-fluorophenyl)(2-hydroxyphenyl)methyl)piperazin-1-yl)-7-nitro-6-oxo-5-(prop-2-yn-1-yl)-5,6-dihydro-1,5-naphthyridine-2-carbonitrile]",80,,0.15,3300,
"C#CCn1c(=O)c([N+](=O)[O-])c(N2CCN(C(C)c3ccc(F)cc3)CC2)c2nc(C#N)ccc21 (racemic) [Example 135, 8-(4-(1-(4-fluorophenyl)ethyl)piperazin-1-yl)-7-nitro-6-oxo-5-(prop-2-yn-1-yl)-5,6-dihydro-1,5-naphthyridine-2-carbonitrile]",340,180,1.3,,
"C#CCn1c(=O)c([N+](=O)[O-])c(N2CCN(C(CC)c3ccc(F)cc3)CC2)c2nc(C#N)ccc21 (racemic) [Example 139, 8-{4-[1-(4-fluorophenyl)propyl]piperazin-1-yl}-7-nitro-6-oxo-5-(prop-2-yn-1-yl)-5,6-dihydro-1,5-naphthyridine-2-carbonitrile]",130,410,0.91,,
"COCCn1c(=O)c([N+](=O)[O-])c(N2CCN(C(C)c3ccc(F)cc3)CC2)c2nc(C#N)ccc21 (racemic) [Example 148, 8-(4-(1-(4-fluorophenyl)ethyl)piperazin-1-yl)-5-(2-methoxyethyl)-7-nitro-6-oxo-5,6-dihydro-1,5-naphthyridine-2-carbonitrile]",870,15000,28,,
"C#CCn1c(=O)c([N+](=O)[O-])c(N2CCN(C(c3ccc(F)cc3)c3ccc(F)cc3O)CC2)c2nc(C#N)ccc21 (single isomer, unassigned) [Example 120, 8-(4-((4-fluoro-2-hydroxyphenyl)(4-fluorophenyl)methyl)piperazin-1-yl)-7-nitro-6-oxo-5-(prop-2-yn-1-yl)-5,6-dihydro-1,5-naphthyridine-2-carbonitrile]",,18000,> 81,,1300
"C#CCn1c(=O)c([N+](=O)[O-])c(N2CCN(C(c3ccc(F)cc3)c3ccccc3OC)CC2)c2nc(C#N)ccc21 (single isomer, unassigned) [Example 131, 8-(4-((4-fluorophenyl)(2-methoxyphenyl)methyl)piperazin-1-yl)-7-nitro-6-oxo-5-(prop-2-yn-1-yl)-5,6-dihydro-1,5-naphthyridine-2-carbonitrile]",500,11000,0.37,,
"COc1ccccc1C(c1ccc(F)cc1)N1CCN(c2c(C#N)c(=O)n(C)c3ccc(Br)nc23)CC1 (stereo not shown) [Example 12, 6-bromo-4-{4-[(4-fluorophenyl)(2-methoxyphenyl)methyl]piperazin-1-yl}-1-methyl-2-oxo-1,2-dihydro-1,5-naphthyridine-3-carbonitrile]",580,1000,> 81,,
"Cn1c(=O)c([N+](=O)[O-])c(N2CCN(C(CO)c3ccc(F)cc3)CC2)c2nc(C#N)ccc21 (stereo not shown) [Example 37, 8-{4-[1-(4-fluorophenyl)-2-hydroxyethyl]piperazin-1-yl}-5-methyl-7-nitro-6-oxo-5,6-dihydro-1,5-naphthyridine-2-carbonitrile]",2830,1800,38,,
"CC(c1ccc(F)cc1)N1CCN(c2c([N+](=O)[O-])c(=O)n(C)c3ccc(C#N)nc23)CC1 (stereo not shown) [Example 43, 8-(4-(1-(4-fluorophenyl)ethyl)piperazin-1-yl)-5-methyl-7-nitro-6-oxo-5,6-dihydro-1,5-naphthyridine-2-carbonitrile]",400,37,6.3,,
"COCCn1c(=O)c(C#N)c(N2CCN(C(c3ccc(F)cc3)c3ccc(F)cc3)CC2)c2nc(Br)ccc21 [Example 113, 4-(4-(bis(4-fluorophenyl)methyl)piperazin-1-yl)-6-bromo-1-(2-methoxyethyl)-2-oxo-1,2-dihydro-1,5-naphthyridine-3-carbonitrile]",580,,,,
"Cn1c(=O)c(C#N)c(N2CCN(Cc3ccccc3N)CC2)c2nc(Br)ccc21 [Example 211, 4-(4-(2-aminobenzyl)piperazin-1-yl)-6-bromo-1-methyl-2-oxo-1,2-dihydro-1,5-naphthyridine-3-carbonitrile]",520,250,> 240,,
"Cn1c(=O)c(C#N)c(N2CCN(Cc3ccccc3NS(C)(=O)=O)CC2)c2nc(Br)ccc21 [Example 212, N-(2-((4-(6-bromo-3-cyano-1-methyl-2-oxo-1,2-dihydro-1,5-naphthyridin-4-yl)piperazin-1-yl)methyl)phenyl)methanesulfonamide]",1140,2200,> 240,,
"Cn1c(=O)c(C#N)c(N2CCN(Cc3cccc4c3NC(=O)C4)CC2)c2nc(Br)ccc21 [Example 374, 6-bromo-1-methyl-2-oxo-4-{4-[(2-oxo-2,3-dihydro-1H-indol-7-yl)methyl]piperazin-1-yl}-1,2-dihydro-1,5-naphthyridine-3-carbonitrile]",7930,,,,
"Cn1c(=O)c(C#N)c(N2CCN(Cc3cccc4c3NC(=O)C4)CC2)c2nc(Cl)ccc21 [Example 376, 6-chloro-1-methyl-2-oxo-4-{4-[(2-oxo-2,3-dihydro-1H-indol-7-yl)methyl]piperazin-1-yl}-1,2-dihydro-1,5-naphthyridine-3-carbonitrile]",10000,,,,
"Cn1c(=O)c(C#N)c(N2CCN(Cc3ccc(C#N)cc3F)CC2)c2nc(Cl)ccc21 [Example 379, 6-chloro-4-{4-[(4-cyano-2-fluorophenyl)methyl]piperazin-1-yl}-1-methyl-2-oxo-1,2-dihydro-1,5-naphthyridine-3-carbonitrile]",7840,380,> 240,,
"Cn1c(=O)c(C#N)c(N2CCN(Cc3cccc(C(C)(C)C)c3O)CC2)c2nc(Cl)ccc21 [Example 384, 4-{4-[(3-tert-butyl-2-hydroxyphenyl)methyl]piperazin-1-yl}-6-chloro-1-methyl-2-oxo-1,2-dihydro-1,5-naphthyridine-3-carbonitrile]",180,,,,
"Cn1c(=O)c(C#N)c(N2CCN(Cc3c(O)cccc3Cl)CC2)c2nc(Br)ccc21 [Example 390, 6-bromo-4-{4-[(2-chloro-6-hydroxyphenyl)methyl]piperazin-1-yl}-1-methyl-2-oxo-1,2-dihydro-1,5-naphthyridine-3-carbonitrile]",800,870,> 240,,
